Data reported in paper PMC8238948, “Potent inhibitors of toxic alpha-synuclein identified via cellular time-resolved FRET biosensors” (NPJ Parkinson's Disease, 2021).
Entries after “also recorded” stand apart in the source; their conditions may differ. Where a name gives a salt, the structure may show the parent alone.

Columns and labels:
[1] = target: T1, WT αSN oligomer (inter-protomeric) FRET biosensor in HEK293 cells (Homo sapiens, UniProt P37840); experiment: FLT dose response, WT oligomer (inter-protomeric) FRET biosensor; assay type: cell-based; conditions: 1 nM to 50 μM
T1 construct: In addition to full-length αSN fusion constructs, we observe both C-terminally and N-terminally truncated αSN species; expressed in transfected cells; host or cells: HEK293
Description: Hits from the pilot HTS of the LOPAC library were selected and dispensed into 384-well plates to verify reproducible and specific FLT trends using the WT and A53T oligomer (inter-protomeric) FRET biosensors. Figure 6 presents a subset of these dose-response curves for hit compounds RO, BAY, SB206553, and DEM, along with known control compound EGCG. […] Assay quality was determined by Z′ (Eq. 2) where a Z′ > 0.5 indicates good assay quality. Using EGCG as control compound and the hit DEM, we calculated Z′ value of 0.76 and 0.66, respectively, indicating excellent assay quality.
Fig. 6 FRET dose response of pilot HTS hits. A subset of hits were evaluated using both WT (a) and A53T (b) oligomer biosensor to verify both increased FLT (disrupting αSN–αSN interactions) and decreased FLT (tighter aggregation or remodeled oligomers).
Compounds were tested in a FLT dose-response assay. The compound was dissolved to 10 mM in DMSO, then serially diluted in 96-well mother plates. Each hit was re-screened for FLT dose response across eight concentrations (1 nM to 50 μM). Compounds (0.5 μL) were transferred from mother plates into assay plates using a Mosquito HV liquid handler (TTP Labtech Ltd, UK). The preparations for αSN FRET biosensors were carried out as above.

[2] = test system: primary mouse hippocampal neurons treated with murine-PFF; experiment: Primary neuron model of αSN PFF pathology; assay type: cell-based; conditions: 1 µM compound, co-treatment with murine-PFF for 12 days
From the text: As described previously, numerous in vivo and in vitro alpha-synucleinopathy mouse models have been developed using treatment with sonicated αSN PFF to model pathology. PFF treatment of primary mouse hippocampal neurons results in neurotoxicity and increased phosphoserine-129 (pS^129) immunoreactivity, a marker for alpha-synucleinopathy pathology[87],[88]. These effects can be produced using either human-PFF or murine-PFF with the murine-PFF providing a stronger response. Primary neurons (7 days in vitro (DIV)) were treated for 12 days with murine-PFF or PBS and 1 µM hit compound or DMSO (compound vehicle). Neurons were fixed and stained for NeuN (neuronal nuclei), Map2 (neurite and neuronal morphology), and 81a (pS^129) (see Supplementary Fig. 16). […] Future studies focused on hit-to-lead optimization will focus on these nuances to resolve hit compound’s MOA.
Primary neuronal cultures were prepared from CD1 embryos on E16–18, as previously described. Primary mouse neuron protocol was approved by the University of Pennsylvania Institutional Animal Care and Use Committee. Tissue culture plates and coverslips were coated with Poly-D-lysine (Sigma) before addition of cells. Neurons were plated in 96-well plates (60,000 cells/cm^2). Cultures were maintained in Neurobasal medium supplemented with B27 and Glutamax (all from Invitrogen).
PFF treatment was performed at 7 DIV and cultures were incubated for a further 12 days prior to fixation and analysis. […] PFF concentrations are expressed as the total equivalent αSN monomer content in the preparation. […]
Cultured neurons were fixed by replacing media with warm PFA (4% in PBS containing 4% sucrose) for 15 min at RT. […] Image analysis and quantification was performed using the InCell Toolbox Analyzer software (GE Healthcare Life Sciences). The total integrated area for 81a immunopositivity was quantified for each sample and then normalized (divided) by the number of NeuN-positive objects in the fields examined.

[3] = target: T2, 3FY-αSN (monomeric αSN) (Homo sapiens, UniProt P37840); experiment: Protein-observed fluorine NMR (PrOF NMR); assay type: binding; conditions: for 19F chemical shifts / resonance broadening on titration: 20 μM 3FY-αSN, compound titration
T2 construct: made in house
Description: PrOF NMR provides a perturbation-free method to monitor αSN conformation and structure through the incorporation of F19-labeled 3-fluoro-Tyrosine into recombinant protein[89].
Experiments were run on a Bruker 600-MHz Avance NEO (6001), equipped with a 5 mm triple resonance cryoprobe. 3FY-αSN was diluted in PBS, pH = 7.4 buffer by the addition of D2O and 0.1% trifluoroacetic acid (TFA) to final concentrations of 5 and 0.07%, respectively, in a total NMR sample volume of 150 µL. Two one-dimensional ^19F NMR spectra were taken of the protein sample at an O1P of −75 ppm, NS = 16, D1 = 1 s, and AQ = 0.5 s (TFA reference set to −75.25 ppm) and an O1P of −136 ppm, NS = 3072, D1 = 0.6 s, and AQ = 0.05 s (protein resonances). Ligand stock solutions of 1–10 mM were prepared in DMSO and titrated into the protein solutions (20 μM). As a control experiment, in a separate NMR tube, DMSO was added to a final concentration of 0.5, 0.6, 0.8, 1.5, and 2.5% to control for any solvent-induced chemical shifts. For each concentration, a TFA reference spectrum and a protein 1D-^19F NMR spectrum were acquired.
Supplemental Figure 20. PrOF NMR experiments with hit compounds and fluorinated αSN support a lack of binding to monomeric αSN. (a) 19F NMR spectrum and assignments of 3FY- αSN. The resulting spectrum is consistent with the spectrum of monomeric 3FY- αSN reported by 4. Corresponding assignments are used from that report. Stacked 19F NMR spectra with an increasing concentration of (b) Ro 90-7501 and (c) DEM HCl […]
compound binding to monomeric αSN. An exception is at high concentrations of Ro 90-7501(110 μM) a small degree of chemical shift perturbation is observed.
(1 picture or pasted object on this page, not shown here)

FLT trend in dose response [1]	Compound	pS129 pathology staining (81a/NeuN) [2]	19F chemical shifts / resonance broadening on titration [3]	19F chemical shift perturbation at high concentration ([3]; 20 µM 3FY-αSN, 110 μM compound)
reduced FLT	COC(=O)C1=C(C)NC(C)=C([N+](=O)[O-])C1c1ccccc1C(F)(F)F (racemic) [BAY, (±)-Bay K 8644]	reduced the αSN pathology; also recorded: reduces the pS^129 phenotype		
reduced FLT	CN(C)[C@@H]1C(O)=C(C(N)=O)C(=O)[C@@]2(O)C(O)=C3C(=O)c4c(O)ccc(Cl)c4[C@@H](O)[C@H]3C[C@@H]12 [DEM, Demeclocycline HCl]	reduced the αSN pathology; also recorded: reduces the pS^129 phenotype	no significant chemical shifts or resonance broadening	
reduced FLT	Nc1ccc(-c2nc3ccc(-c4nc5ccc(N)cc5[nH]4)cc3[nH]2)cc1 [RO, Ro 90–7501]	little to no effect	no significant chemical shifts or resonance broadening	small degree of chemical shift perturbation
